Results reported in US7560473B2 (Institute of Pharmacology and Toxicology Academy of …, priority 2001, dated 2009).

Experiments:
[1] = tested on: spontaneously hypertensive rats; assay: Acute antihypertensive effects in conscious spontaneously hypertensive rats; assay type: in vivo; details: po mg/kg: compound 1 3, pinacidil 3, nifedipine 10, bisoprolol 60, captopril 40, means ± SD, 9-13 rats; for heart rates at 1 h / heart rates at 3 h / heart rates at 5 h / heart rates at 9 h / heart rates at 12 h / heart rates at 24 h / heart rates base value: in bpm (unit assumed); for SBP base value / heart rates base value: base value before administration
Excerpt: Biological activity experiment 2. The acute antihypertensive effects of compound 1 in conscious spontaneously hypertensive rats.
The methods of biological activity experiment 2 were described by Long Chao-Liang et al: Long Chao-Liang, Wang Hai, Xiao Wen-Bin. Effects of pinacidil on, hypertensive vascular remodeling. Chin J Pharmacol Toxicol 1997; 11(1):42-46.

[2] = tested on: rats anesthetized with pentobarbital sodium; assay: Effects on blood pressure, heart rate, cardiac contraction and dilation in rats anesthetized with pentobarbital sodium; assay type: in vivo, Wistar rats; parameters: unit not given here; details: change after injection through femoral vein, '+' = increase, all others = decrease; for MBP: mean blood pressure: n = 3~5, doses mg/kg: 2, 8, 12: 10, 3-7, 9-11, 40-44: 5; for DBP: diastolic blood pressure / HR: heart rate / LVSP: left ventricular systolic pressure / SBP: systolic blood pressure / Vpm: the physiological velocity of contractile element shorting / −dp/dtmax: the maximal rate of the decrease of left ventricular pressure: mean, n = 3~5, doses mg/kg: 2, 8, 12: 10, 3-7, 9-11, 40-44: 5
Protocol: Biological activity experiment 1. The effects of 16 compounds represented by formula I on blood pressure, heart rate, cardiac contraction and dilation in rats anesthetized with pentobarbital sodium.
The methods of biological activity experiment 1 were as follows: Male Wistar rats, weighing 280±30 g were purchased from the experimental animal center of Academy of Military Medical Sciences. Rats were anesthetized with pentobarbital sodium (45 mg/kg) by peritoneal injection. A PE50 polyethylene catheter was inserted into the left ventricle through right carotid artery for cardiac function measurement with a pressure energe exchanger, wherein the signal is put into a SMUP-PC biosignal processing system. Cardiac functional parameters such as HR, LVSP, +dp/dtmax, −dp/dtmax and Vpm were recorded. Another two PE50 polyethylene catheters were inserted into the right femoral artery and vein respectively for blood pressure measurement wherein the artery cathether was linked to a four-channel physiology recorder (RM-6000) through a MPU-0.5A Type pressure energe exchanger, which recorded SBP, DBP and MBP, while the vein catheter was used for compound administration. The methods were described by Liu Wei et al: Liu Wei, Wang Hai, Xiao Wen-Bin. […] Bull Acad Mil Med Sci 1996;20(4):245˜248.

[3] = tested on: rats anesthetized with pentobarbital sodium; assay: Antagonism of glibenclamide on the cardiovascular effects in anesthetized rats; assay type: in vivo, Wistar rats; details: iv mg/kg: pinacidil 1.0, nifedipine 1.0, compound 1 0.5, means ± SE
Protocol: The methods of biological activity experiment 1 were as follows: Male Wistar rats, weighing 280±30 g were purchased from the experimental animal center of Academy of Military Medical Sciences. Rats were anesthetized with pentobarbital sodium (45 mg/kg) by peritoneal injection. A PE50 polyethylene catheter was inserted into the left ventricle through right carotid artery for cardiac function measurement with a pressure energe exchanger, wherein the signal is put into a SMUP-PC biosignal processing system. Cardiac functional parameters such as HR, LVSP, +dp/dtmax, −dp/dtmax and Vpm were recorded. Another two PE50 polyethylene catheters were inserted into the right femoral artery and vein respectively for blood pressure measurement wherein the artery cathether was linked to a four-channel physiology recorder (RM-6000) through a MPU-0.5A Type pressure energe exchanger, which recorded SBP, DBP and MBP, while the vein catheter was used for compound administration. The methods were described by Liu Wei et al: Liu Wei, Wang Hai, Xiao Wen-Bin.
The methods of Biological activity experiment 3 were the same as those described in the biological activity experiment 1.

[4] = A: after administration (30 min after pinacidil, 10 min nifedipine, 15 min compound 1), glibenclamide 20 iv pretreatment
[5] = B: before administration, glibenclamide 20 iv pretreatment ten minutes

CC(C)NCC(O)COc1ccc(COCCOC(C)C)cc1 (centres unmarked) [bisoprolol]
SBP at 1 h after administration [1]: 211 ± 7 mmHg
heart rates at 1 h [1]: 283 ± 17
SBP at 3 h after administration [1]: 240 ± 7 mmHg
heart rates at 3 h [1]: 278 ± 16
SBP at 5 h after administration [1]: 242 ± 4 mmHg
heart rates at 5 h [1]: 335 ± 34
SBP at 9 h after administration [1]: 242 ± 3 mmHg
heart rates at 9 h [1]: 320 ± 36
SBP at 12 h after administration [1]: 243 ± 3 mmHg
heart rates at 12 h [1]: 341 ± 28
SBP at 24 h after administration [1]: 242 ± 6 mmHg
heart rates at 24 h [1]: 360 ± 7
SBP base value [1]: 242 ± 5 mmHg
heart rates base value [1]: 355 ± 17

C[C@H](CS)C(=O)N1CCC[C@H]1C(=O)O [captopril]
SBP at 1 h after administration [1]: 207 ± 9 mmHg
heart rates at 1 h [1]: 380 ± 12
SBP at 3 h after administration [1]: 213 ± 11 mmHg
heart rates at 3 h [1]: 370 ± 24
SBP at 5 h after administration [1]: 233 ± 10 mmHg
heart rates at 5 h [1]: 366 ± 22
SBP at 9 h after administration [1]: 242 ± 4 mmHg
heart rates at 9 h [1]: 355 ± 12
SBP at 12 h after administration [1]: 241 ± 5 mmHg
heart rates at 12 h [1]: 355 ± 29
SBP at 24 h after administration [1]: 243 ± 4 mmHg
heart rates at 24 h [1]: 364 ± 12
SBP base value [1]: 243 ± 4 mmHg
heart rates base value [1]: 350 ± 17

CC(C)NC(C)C(C)C (centres unmarked) [compound 7]
MBP: mean blood pressure [2]: 34
DBP: diastolic blood pressure [2]: 34
HR: heart rate [2]: 46
LVSP: left ventricular systolic pressure [2]: 184
SBP: systolic blood pressure [2]: 34
Vpm: the physiological velocity of contractile element shorting [2]: 1.08
−dp/dtmax: the maximal rate of the decrease of left ventricular pressure [2]: 226

CNC(C)C [compound 8]
MBP: mean blood pressure [2]: 26
DBP: diastolic blood pressure [2]: 24
HR: heart rate [2]: 53
LVSP: left ventricular systolic pressure [2]: 121
SBP: systolic blood pressure [2]: 28
Vpm: the physiological velocity of contractile element shorting [2]: 1.45
−dp/dtmax: the maximal rate of the decrease of left ventricular pressure [2]: 124

CCC(C)N (centres unmarked) [compound 10]
MBP: mean blood pressure [2]: 4
DBP: diastolic blood pressure [2]: 5
HR: heart rate [2]: 20
LVSP: left ventricular systolic pressure [2]: 21
SBP: systolic blood pressure [2]: 2
Vpm: the physiological velocity of contractile element shorting [2]: 0.25
−dp/dtmax: the maximal rate of the decrease of left ventricular pressure [2]: 27

CCC(C)(C)NC [compound 11]
MBP: mean blood pressure [2]: 13
DBP: diastolic blood pressure [2]: 10
HR: heart rate [2]: 19
LVSP: left ventricular systolic pressure [2]: +159
SBP: systolic blood pressure [2]: 18
Vpm: the physiological velocity of contractile element shorting [2]: 0.1
−dp/dtmax: the maximal rate of the decrease of left ventricular pressure [2]: +86

CCC(C)N (centres unmarked) [compound 12]
MBP: mean blood pressure [2]: 24
DBP: diastolic blood pressure [2]: 23
HR: heart rate [2]: 39
LVSP: left ventricular systolic pressure [2]: 112
SBP: systolic blood pressure [2]: 25
Vpm: the physiological velocity of contractile element shorting [2]: 0.58
−dp/dtmax: the maximal rate of the decrease of left ventricular pressure [2]: 129

CC(C)C(C)(C)NC(=O)[C@@H](N)Cc1c[nH]c2ccccc12 [compound 40, N-tryptophanyl-2,3-dimethyl-2-butylamine]
MBP: mean blood pressure [2]: +0.7
DBP: diastolic blood pressure [2]: 0
HR: heart rate [2]: 6
LVSP: left ventricular systolic pressure [2]: +23
SBP: systolic blood pressure [2]: +2
Vpm: the physiological velocity of contractile element shorting [2]: +0.1
−dp/dtmax: the maximal rate of the decrease of left ventricular pressure [2]: +6

CC[C@H](C)[C@H](N)C(=O)NC(C)(C)C(C)C [compound 41, N-isoleucyl-2,3-dimethyl-2-butylamine]
MBP: mean blood pressure [2]: +1
DBP: diastolic blood pressure [2]: +1
HR: heart rate [2]: 16
LVSP: left ventricular systolic pressure [2]: +4
SBP: systolic blood pressure [2]: +2
Vpm: the physiological velocity of contractile element shorting [2]: 0
−dp/dtmax: the maximal rate of the decrease of left ventricular pressure [2]: +2

CC(C)C[C@H](N)C(=O)NC(C)(C)C(C)C [compound 42, N-leucyl-2,3-dimethyl-2-butylamine]
MBP: mean blood pressure [2]: +2
DBP: diastolic blood pressure [2]: +2
HR: heart rate [2]: +1
LVSP: left ventricular systolic pressure [2]: +10
SBP: systolic blood pressure [2]: +2
Vpm: the physiological velocity of contractile element shorting [2]: +0.18
−dp/dtmax: the maximal rate of the decrease of left ventricular pressure [2]: +13

CC(C)C(C)(C)NC(=O)[C@@H](N)Cc1ccccc1 [compound 43, N-phenylalanyl-2,3-dimethyl-2-butylamine]
MBP: mean blood pressure [2]: +2
DBP: diastolic blood pressure [2]: +1
HR: heart rate [2]: +10
LVSP: left ventricular systolic pressure [2]: +31
SBP: systolic blood pressure [2]: +3
Vpm: the physiological velocity of contractile element shorting [2]: +0.13
−dp/dtmax: the maximal rate of the decrease of left ventricular pressure [2]: +10

COC(=O)C1=C(C)NC(C)=C(C(=O)OC)C1c1ccccc1[N+](=O)[O-] [nifedipine]
SBP at 1 h after administration [1]: 186 ± 6 mmHg
heart rates at 1 h [1]: 410 ± 11
SBP at 3 h after administration [1]: 219 ± 12 mmHg
heart rates at 3 h [1]: 410 ± 31
SBP at 5 h after administration [1]: 235 ± 5 mmHg
heart rates at 5 h [1]: 367 ± 24
SBP at 9 h after administration [1]: 240 ± 6 mmHg
heart rates at 9 h [1]: 365 ± 13
SBP at 12 h after administration [1]: 242 ± 4 mmHg
heart rates at 12 h [1]: 365 ± 16
SBP at 24 h after administration [1]: 242 ± 4 mmHg
heart rates at 24 h [1]: 364 ± 22
SBP base value [1]: 242 ± 5 mmHg
heart rates base value [1]: 352 ± 19
DBP [3, 4]: 62 ± 7 mmHg
LVSP [3, 4]: 113 ± 7 mmHg
MBP [3, 4]: 76 ± 8 mmHg
Vpm [3, 4]: 4.2 ± 0.5 /a
DBP [3, 5]: 95 ± 8 mmHg
LVSP [3, 5]: 131 ± 6 mmHg
MBP [3, 5]: 111 ± 7 mmHg
Vpm [3, 5]: 5.7 ± 0.1 /a
